Measurements: patent publication US20050234125A1, “Alpha-sulfonylamino-acetonitriles” (priority 2002, published 2005)

SMILES | melting point [°C]
CC(C#N)(COc1ccc(Cl)cc1)NS(=O)(=O)Cc1ccccc1 (centres unmarked) | 120 to 121
CC(C#N)(COc1ccc(Cl)cc1)S(=O)(=O)Cc1ccc(Cl)cc1 (centres unmarked) | 119 to 120
